Laboratory results published in article PMC11861906, “Structural basis for lipid-mediated activation of G protein-coupled receptor GPR55” (Nature Communications, 2025).

Target: GPR55 mutant N171A (Gα13) (Homo sapiens, UniProt Q9Y2T6, N171A)
Test: BRET² G protein dissociation assay, GPR55 N171A with Gα13
Type: cell-based
From the text: To validate the functionality of the GPR55 cryo-EM construct, we conducted bioluminescence resonance energy transfer 2 (BRET²)-based G protein dissociation assays[46],[47] using an engineered heterotrimeric G13 protein. The N-terminal GFP fusion of the receptor was additionally modified with a G67A mutation to disrupt fluorescence properties. We employed human embryonic kidney (HEK) cells overexpressing wt or mutant GPR55 together with Gβ3, Gγ9-GFP, and Gα13 tagged with Renilla luciferase 8 (Rluc8).
G protein dissociation assays were performed according to the original protocols of the TRUPATH BRET² assay[47],[87] but with subtle modifications as previously described[61],[88],[89]. All reagents and cells were obtained from Thermo Fisher Scientific unless indicated otherwise. The coding sequences for the G protein biosensors[47] (Gα12-Rluc8, Gα13-Rluc8, wt Gβ3, and Gγ9-GFP), the wt GPR55, the construct used for cryo-EM (with GFP bearing a G67A mutation to disrupt fluorescence properties[48] for BRET² assays), GPR55 binding pocket mutants (G152^4.56F, G152^4.56W, N171^ECL2Q, N171^ECL2A, T176^5.33A, R253^6.62A), and the wt TBXA2R were codon-optimized for Homo sapiens, gene-synthesized, and sub-cloned into pcDNA^TM3.1(+) between NheI and HindIII restriction sites by GeneArt (Thermo Fisher Scientific). […] Freshly grown cells were washed with Dulbecco’s Balanced Salt Solution (DPBS, cat. #14200075) and detached using trypsin-ethylenediaminetetraacetic acid (trypsin-EDTA) (cat. #25300-062). Then, the cells were reconstituted to 500,000 cells per mL with fresh medium, and 1,000,000 cells were seeded into each well of a 6-well plate. After 3 h incubation at 37 °C and 5% CO2, adherent cells were transfected with 600 ng DNA (1:1:1:1 ratio of plasmid DNA for GPR55, wt Gβ3, Gγ9-GFP, and Gα12-Rluc8 or Gα13-Rluc8). Plasmid DNA was mixed with 1.5 µL Lipofectamine^TM 2000 (cat. #11668027) in Opti-MEM^TM medium (cat. #31985062) and incubated for 20 min. Then, the mixture was added to each well of the 6-well plate following 24 h incubation at 37 °C and 5% CO2. Transfected cells were washed with DPBS, detached using EDTA (Versene, cat. #15040066), and reconstituted into fresh medium at 500,000 cells mL^−1. From this suspension, 50,000 cells were seeded into each well of a white-bottom 96-well plate (Nunc^TM MicroWell^TM 96 wells, cat. #136101) following overnight incubation at 37 °C and 5% CO2. Then, the adherent cells were washed with assay medium [Hank’s balanced salt solution (HBSS, cat. #14065056) plus 20 mM HEPES pH 7.4 (cat. #15630056)] and finally reconstituted into 50 µL of the same medium. […] Methoxy e-Coelenterazine was used as luciferase substrate (Prolume Purple, NanoLight Technology, cat. #369), reconstituted at 1 mM in methanol and diluted to 37.5 µM with assay buffer (7.5 µM final assay concentration). The assay was started by the addition of 20 µL luciferase substrate to each well of the assay plate using a Multidrop^TM Combi reagent dispenser (Thermo Fisher Scientific), followed by 5 min incubation at room temperature. Then, 30 µL of agonist dilutions or DMSO control was added (final DMSO concentration 1.5%), followed by an additional 5 min incubation at room temperature. BRET² measurements were performed with a PHERAstar® FSX microplate reader (BMG LABTECH) using a BRET² filter (donor emission 370–450 nm, acceptor emission 500–530 nm) at the maximum fluorescence gain of 3600. BRET² ratios were calculated by dividing GFP emission signals from Rluc8 emission counts. Buffer-DMSO controls were subtracted from each data point to calculate ΔBRET² ratios.

GPR55 mutant N171A (Gα13), sequence (Q9Y2T6 whole entry N171A): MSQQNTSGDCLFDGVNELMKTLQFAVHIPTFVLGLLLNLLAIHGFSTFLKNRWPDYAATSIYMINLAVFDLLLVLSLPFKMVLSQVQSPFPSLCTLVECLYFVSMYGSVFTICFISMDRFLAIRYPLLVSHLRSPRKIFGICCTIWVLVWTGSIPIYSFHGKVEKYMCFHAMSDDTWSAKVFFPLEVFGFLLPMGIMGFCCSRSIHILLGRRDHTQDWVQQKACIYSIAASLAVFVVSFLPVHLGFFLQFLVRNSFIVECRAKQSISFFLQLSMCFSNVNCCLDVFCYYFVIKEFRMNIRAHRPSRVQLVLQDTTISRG
GPR55 mutant N171A (Gα13), sequence (Q14344 whole entry partner): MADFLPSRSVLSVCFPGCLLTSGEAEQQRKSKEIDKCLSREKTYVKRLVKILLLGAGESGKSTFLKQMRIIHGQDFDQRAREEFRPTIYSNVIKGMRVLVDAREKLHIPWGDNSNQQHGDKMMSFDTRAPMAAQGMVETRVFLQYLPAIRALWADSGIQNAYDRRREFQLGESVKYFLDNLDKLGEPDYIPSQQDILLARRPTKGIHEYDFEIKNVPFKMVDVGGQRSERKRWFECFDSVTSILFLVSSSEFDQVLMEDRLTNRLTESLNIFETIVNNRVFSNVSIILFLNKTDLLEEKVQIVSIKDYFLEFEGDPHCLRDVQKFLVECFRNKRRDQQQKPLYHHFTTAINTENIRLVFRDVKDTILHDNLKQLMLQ
GPR55 mutant N171A (Gα13), sequence (P16520 whole entry partner): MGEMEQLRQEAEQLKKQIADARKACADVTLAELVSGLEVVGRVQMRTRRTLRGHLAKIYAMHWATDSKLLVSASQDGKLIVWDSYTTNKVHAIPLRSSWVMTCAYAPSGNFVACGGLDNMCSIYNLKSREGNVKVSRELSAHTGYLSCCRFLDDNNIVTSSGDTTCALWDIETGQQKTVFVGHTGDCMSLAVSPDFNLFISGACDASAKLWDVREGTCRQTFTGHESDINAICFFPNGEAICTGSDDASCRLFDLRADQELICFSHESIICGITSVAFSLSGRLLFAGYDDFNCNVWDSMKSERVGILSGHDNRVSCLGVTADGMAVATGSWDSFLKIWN
GPR55 mutant N171A (Gα13), sequence (O14610 1-66 partner limits assumed): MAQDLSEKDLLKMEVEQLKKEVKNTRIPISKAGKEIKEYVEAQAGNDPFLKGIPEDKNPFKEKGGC

Cc1cccc(N2CCN(C(=O)c3cc(S(=O)(=O)N(C)C)ccc3N3CCCC3)CC2)c1C [ML184, 3-[[4-(2,3-dimethylphenyl)-1-piperazinyl]carbonyl]-N,N-dimethyl-4-(1-pyrrolidinyl)benzenesulfonamide]
Mean (plotted) BRET² response, GPR55-N171A-G13 (Concentration 300 pM): 0.002752
Mean (plotted) BRET² response, GPR55-N171A-G13 (Concentration 1e-9 M): 0.003846
Mean (plotted) BRET² response, GPR55-N171A-G13 (Concentration 3e-9 M): -0.0003036
Mean (plotted) BRET² response, GPR55-N171A-G13 (Concentration 1e-8 M): 0.001966
Mean (plotted) BRET² response, GPR55-N171A-G13 (Concentration 3e-8 M): -0.0002448
Mean (plotted) BRET² response, GPR55-N171A-G13 (Concentration 1e-7 M): -0.005366
Mean (plotted) BRET² response, GPR55-N171A-G13 (Concentration 3e-7 M): -0.01646
Mean (plotted) BRET² response, GPR55-N171A-G13 (Concentration 1e-6 M): -0.04126
Mean (plotted) BRET² response, GPR55-N171A-G13 (Concentration 3e-6 M): -0.05866
Mean (plotted) BRET² response, GPR55-N171A-G13 (Concentration 1e-5 M): -0.07333
Mean (plotted) BRET² response, GPR55-N171A-G13 (Concentration 3e-5 M): -0.07936
EC50 (GPR55 N171A, Gα13): 1050 nM
Emax at 30 µM (GPR55 N171A, Gα13, 30 µM ligand, same normalization, read-out: Efficacy ± SEM (%)): 73 ± 3%
reduction of potency compared to wt GPR55 (N171A mutant): 24 fold

CCCCC[C@H](O)/C=C/[C@@H]1[C@@H](C/C=C\CCCC(=O)O)[C@H]2CO[C@@H]1C2 [U-46619]
Mean (plotted) BRET² response, GPR55-N171A-G13 (Concentration 10 pM): 0.0067
Mean (plotted) BRET² response, GPR55-N171A-G13 (Concentration 30 pM): 0.0022
Mean (plotted) BRET² response, GPR55-N171A-G13 (Concentration 100 pM): 0.008
Mean (plotted) BRET² response, GPR55-N171A-G13 (Concentration 300 pM): -0.003007
Mean (plotted) BRET² response, GPR55-N171A-G13 (Concentration 1e-9 M): 0.003546
Mean (plotted) BRET² response, GPR55-N171A-G13 (Concentration 3e-9 M): 0.00299
Mean (plotted) BRET² response, GPR55-N171A-G13 (Concentration 1e-8 M): -0.006252
Mean (plotted) BRET² response, GPR55-N171A-G13 (Concentration 3e-8 M): 0.007492
Mean (plotted) BRET² response, GPR55-N171A-G13 (Concentration 1e-7 M): 0.005274
Mean (plotted) BRET² response, GPR55-N171A-G13 (Concentration 3e-7 M): 0.006727
Mean (plotted) BRET² response, GPR55-N171A-G13 (Concentration 1e-6 M): 0.007007
Mean (plotted) BRET² response, GPR55-N171A-G13 (Concentration 3e-6 M): 0.002553
Mean (plotted) BRET² response, GPR55-N171A-G13 (Concentration 1e-5 M): -0.002868
Mean (plotted) BRET² response, GPR55-N171A-G13 (Concentration 3e-5 M): -0.004916
